# Laboratory results reported in patent US20120121591A1 (priority 2009, published 2012).
# Like-named read-outs stand apart in the source and are kept apart here.
# How the values were obtained:
# Type in all cases: cell-based
# hKv1.3 = hKv1.3 (Homo sapiens, UniProt P22001); assay: cell-based; conditions: Kv1.3 (IWQ) IC50 (nM, Avg)
# [1] = system: IL-2 secretion from T cells in human whole blood; conditions: read-out: WB (IL-2) IC50 (nM, Avg)
# [2] = system: IFN-g secretion from T cells in human whole blood
# [3] = read-out: WB (IFNg) IC50 (nM, Avg)
# Sequence of hKv1.3 (P22001 whole entry): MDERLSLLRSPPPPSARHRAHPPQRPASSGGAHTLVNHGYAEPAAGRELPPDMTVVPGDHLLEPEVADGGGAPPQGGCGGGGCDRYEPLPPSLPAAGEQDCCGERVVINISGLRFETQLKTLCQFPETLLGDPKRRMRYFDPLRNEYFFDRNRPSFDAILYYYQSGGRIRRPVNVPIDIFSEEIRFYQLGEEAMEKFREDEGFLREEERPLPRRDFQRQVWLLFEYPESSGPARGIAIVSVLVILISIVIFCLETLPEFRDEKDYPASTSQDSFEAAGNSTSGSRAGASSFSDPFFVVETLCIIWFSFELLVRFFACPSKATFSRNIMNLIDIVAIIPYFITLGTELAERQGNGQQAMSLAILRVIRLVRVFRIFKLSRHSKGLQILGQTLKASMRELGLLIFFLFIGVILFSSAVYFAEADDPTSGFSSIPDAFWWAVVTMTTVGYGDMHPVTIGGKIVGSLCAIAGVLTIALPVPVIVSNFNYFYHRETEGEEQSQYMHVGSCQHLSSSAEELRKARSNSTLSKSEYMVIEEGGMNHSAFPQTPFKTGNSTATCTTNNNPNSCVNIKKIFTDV
SMILES,IC50 (hKv1.3) [nM],IC50 [1] [nM],"IC50 [2, 3] [nM]","IC50 ([2]; read-out: WB (IFNg) IC5- (nM, Avg)) [nM]"
"CCC[C@@H]1NC(=O)[C@H](CO)NC(=O)[C@H](Cc2c[nH]cn2)NC(=O)[C@H](CCCCN)NC(=O)[C@@H]2CSSC[C@@H]3NC(=O)[C@H]([C@@H](C)O)NC(=O)[C@H](CCCCN)NC(=O)[C@H](CCCNC(=N)N)NC(=O)[C@H](CSSC[C@H](NC(=O)[C@H](CCCNC(=N)N)NC(=O)[C@H](CO)NC(=O)[C@H](CCCCN)NC(=O)[C@@H]4CCCN4C(=O)[C@H]([C@@H](C)CC)NC(=O)[C@H]([C@@H](C)O)NC(=O)[C@H](CC(=O)O)NC(=O)[C@H]([C@@H](C)CC)NC(=O)[C@@H](NC(=O)[C@H](CO)NC(=O)[C@@H](N)CCCNC(=N)N)CSSC[C@@H](C(=O)N[C@@H](C)C(N)=O)NC(=O)[C@H]([C@@H](C)O)NC(=O)CNC3=O)C(=O)N[C@@H]([C@@H](C)O)C(=O)N[C@@H](C)C(=O)N[C@@H](Cc3ccccc3)C(=O)N[C@@H](CCCCN)C(=O)N2)NC(=O)[C@H](Cc2ccccc2)NC(=O)[C@H](CO)NC(=O)[C@H](CC(C)C)NC(=O)[C@H](CCCNC(=N)N)NC(=O)[C@H](Cc2ccc(O)cc2)NC(=O)[C@H](CCCCN)NC1=O [[Lys16,Nva21]ShK-Ala-amide]",0.08,0.431,1.46,
"CCC[C@@H]1NC(=O)[C@H](CO)NC(=O)[C@H](Cc2c[nH]cn2)NC(=O)[C@H](CCCCN)NC(=O)[C@@H]2CSSC[C@@H]3NC(=O)[C@H]([C@@H](C)O)NC(=O)[C@H](CCCCN)NC(=O)[C@H](CCCNC(=N)N)NC(=O)[C@H](CSSC[C@H](NC(=O)[C@H](CCCNC(=N)N)NC(=O)[C@H](CO)NC(=O)[C@H](CCCCN)NC(=O)[C@@H]4CCCN4C(=O)[C@H]([C@@H](C)CC)NC(=O)[C@H]([C@@H](C)O)NC(=O)[C@H](CC(=O)O)NC(=O)[C@H](CCC(=O)O)NC(=O)[C@@H](NC(=O)[C@H](CO)NC(=O)[C@@H](N)CCCNC(=N)N)CSSC[C@@H](C(N)=O)NC(=O)[C@H]([C@@H](C)O)NC(=O)CNC3=O)C(=O)N[C@@H]([C@@H](C)O)C(=O)N[C@@H](C)C(=O)N[C@@H](Cc3ccccc3)C(=O)N[C@@H](CCCCN)C(=O)N2)NC(=O)[C@H](Cc2ccccc2)NC(=O)[C@H](CO)NC(=O)[C@H](CC(C)C)NC(=O)[C@H](CCCNC(=N)N)NC(=O)[C@H](Cc2ccc(O)cc2)NC(=O)[C@H](CCCCN)NC1=O [[Glu4, Lys16,Nva21]ShK-amide]",0.086,0.405,0.427,
CC[C@H](C)[C@@H]1NC(=O)[C@@H](NC(=O)[C@H](CO)NC(=O)[C@@H](N)CCCNC(=N)N)CSSC[C@@H](C(=O)O)NC(=O)[C@H]([C@@H](C)O)NC(=O)CNC(=O)[C@@H]2CSSC[C@@H]3NC(=O)[C@H](CCC(N)=O)NC(=O)[C@H](Cc4ccccc4)NC(=O)[C@H](C)NC(=O)[C@H]([C@@H](C)O)NC(=O)[C@H](CSSC[C@H](NC(=O)[C@H](Cc4ccccc4)NC(=O)[C@H](CO)NC(=O)[C@H](CC(C)C)NC(=O)[C@H](CCCNC(=N)N)NC(=O)[C@H](Cc4ccc(O)cc4)NC(=O)[C@H](CCCCN)NC(=O)[C@H](CCSC)NC(=O)[C@H](CO)NC(=O)[C@H](Cc4c[nH]cn4)NC(=O)[C@H](CCCCN)NC3=O)C(=O)N[C@@H](CCCNC(=N)N)C(=O)N[C@@H](CCCCN)C(=O)N[C@@H]([C@@H](C)O)C(=O)N2)NC(=O)[C@H](CCCNC(=N)N)NC(=O)[C@H](CO)NC(=O)[C@H](CCCCN)NC(=O)[C@H](CCCNC(=N)N)NC(=O)[C@H]([C@@H](C)CC)NC(=O)[C@H]([C@@H](C)O)NC(=O)[C@H](CC(=O)O)NC1=O [[Arg8]ShK],0.07,0.187,1.42,
CC[C@H](C)[C@@H]1NC(=O)[C@@H](NC(=O)[C@H](CO)NC(=O)[C@@H](N)CCCNC(=N)N)CSSC[C@@H](C(=O)O)NC(=O)[C@H]([C@@H](C)O)NC(=O)CNC(=O)[C@@H]2CSSC[C@@H]3NC(=O)[C@H](CCC(N)=O)NC(=O)[C@H](Cc4ccccc4)NC(=O)[C@H](C)NC(=O)[C@H]([C@@H](C)O)NC(=O)[C@H](CSSC[C@H](NC(=O)[C@H](Cc4ccccc4)NC(=O)[C@H](CO)NC(=O)[C@H](CCC(=O)O)NC(=O)[C@H](CCCNC(=N)N)NC(=O)[C@H](Cc4ccc(O)cc4)NC(=O)[C@H](CCCCN)NC(=O)[C@H](CCSC)NC(=O)[C@H](CO)NC(=O)[C@H](Cc4c[nH]cn4)NC(=O)[C@H](CCCCN)NC3=O)C(=O)N[C@@H](CCCNC(=N)N)C(=O)N[C@@H](CCCCN)C(=O)N[C@@H]([C@@H](C)O)C(=O)N2)NC(=O)[C@H](CCCNC(=N)N)NC(=O)[C@H](CO)NC(=O)[C@H](CCCCN)NC(=O)[C@@H]2CCCN2C(=O)[C@H]([C@@H](C)CC)NC(=O)[C@H]([C@@H](C)O)NC(=O)[C@H](CC(=O)O)NC1=O [[Glu25]ShK],0.24,0.494,,0.678
CC[C@H](C)[C@@H]1NC(=O)[C@@H](NC(=O)[C@H](CO)NC(=O)[C@@H](N)CCCNC(=N)N)CSSC[C@@H](C(=O)O)NC(=O)[C@H]([C@@H](C)O)NC(=O)CNC(=O)[C@@H]2CSSC[C@@H]3NC(=O)[C@H](CCC(N)=O)NC(=O)[C@H](Cc4ccccc4)NC(=O)[C@H](C)NC(=O)[C@H]([C@@H](C)O)NC(=O)[C@H](CSSC[C@H](NC(=O)[C@H](Cc4ccccc4)NC(=O)[C@H](CO)NC(=O)[C@H](CC(C)C)NC(=O)[C@H](CCCNC(=N)N)NC(=O)[C@H](Cc4ccc(O)cc4)NC(=O)[C@H](CCCCN)NC(=O)[C@H](CCSC)NC(=O)[C@H](CO)NC(=O)[C@H](Cc4c[nH]cn4)NC(=O)[C@H](CCCCN)NC3=O)C(=O)N[C@@H](CCCNC(=N)N)C(=O)N[C@@H](CCCCN)C(=O)N[C@@H](CCCCN)C(=O)N2)NC(=O)[C@H](CCCNC(=N)N)NC(=O)[C@H](CO)NC(=O)[C@H](CCCCN)NC(=O)[C@@H]2CCCN2C(=O)[C@H]([C@@H](C)CC)NC(=O)[C@H]([C@@H](C)O)NC(=O)[C@H](CC(=O)O)NC1=O [[Lys31]ShK],1.42,5.98,27.9,
"CC[C@H](C)[C@@H]1NC(=O)[C@@H](NC(=O)[C@H](CO)NC(=O)[C@@H](N)CCCNC(=N)N)CSSC[C@@H](C(=O)O)NC(=O)[C@H]([C@@H](C)O)NC(=O)CNC(=O)[C@@H]2CSSC[C@@H]3NC(=O)[C@H](CCCCN)NC(=O)[C@H](Cc4ccccc4)NC(=O)[C@H](C)NC(=O)[C@H]([C@@H](C)O)NC(=O)[C@H](CSSC[C@H](NC(=O)[C@H](Cc4cccc5ccccc45)NC(=O)[C@H](CO)NC(=O)[C@H](CC(C)C)NC(=O)[C@H](CCCNC(=N)N)NC(=O)[C@H](Cc4ccc(O)cc4)NC(=O)[C@H](CCCCN)NC(=O)[C@H](CCSC)NC(=O)[C@H](CO)NC(=O)[C@H](Cc4c[nH]cn4)NC(=O)[C@H](CCCCN)NC3=O)C(=O)N[C@@H](CCCNC(=N)N)C(=O)N[C@@H](CCCCN)C(=O)N[C@@H]([C@@H](C)O)C(=O)N2)NC(=O)[C@H](CCCNC(=N)N)NC(=O)[C@H](CO)NC(=O)[C@H](CCCCN)NC(=O)[C@@H]2CCCN2C(=O)[C@H]([C@@H](C)CC)NC(=O)[C@H]([C@@H](C)O)NC(=O)[C@H](CC(=O)O)NC1=O [[Lys16,1-Na127]ShK]",0.113,0.924,5.68,
